Measured values published in BindingDB's records for PubMed 33721669 (National Institute of Pharmaceutical Education and Research …, 2021).
pIC50: −log10 of the molar value.

How the values were obtained:
[1] = Inhibition of PDK1 (unknown origin) by SelectScreen kinase assay
[2] = Inhibition of VEGFR-2 (unknown origin) induced tube formation in HUVECs cocultured with fibroblasts measured after 11 days with media renewing every 3 days by staining based analysis
[3] = target: Cyclin-dependent kinase 2 (Homo sapiens, UniProt P24941); experiment: Inhibition of CDK2 (unknown origin)

SMILES	pIC50 [3]	other results
COc1cc2c(cc1OC)CN(CC(=O)Nc1ccc3c(c1)/C(=C/c1cnc[nH]1)C(=O)N3)CC2	–	pIC50 [1]: 4.01
CCN(CC)CCN1Cc2[nH]c(/C=C3\C(=O)Nc4ccc(Br)cc43)c(C)c2C1=O	–	pIC50 [2]: 6.75
O=C1Nc2ccc(Br)cc2/C1=N/NC(=O)c1cc2cc(Br)ccc2o1	7.42	–
COc1ccc2c(c1)/C(=N/NC(=O)c1cc3cc(Br)ccc3o1)C(=O)N2	7.28	–
